Values of other authors in patent US20220333071A1, “METHODS OF MAKING, EXPANDING AND PURIFYING MIDBRAIN DOPAMINERGIC PROGENITOR CELLS” (BrainXell, Inc., priority 2021, published 2022).
Values belong to the molecule of their own block, whether it stands above or below them.

Experiments:
[1] = test system: BMP4-induced phosphorylation of Smads 1, 5 and 8; settings: HEK293 cells
ALK-3 = ALK-3 (Homo sapiens, UniProt P36894); settings: in vitro kinase assays
ALK5 = target: T1, ALK5 (Homo sapiens, UniProt P36897)
T1 sequence (P36897 34-503): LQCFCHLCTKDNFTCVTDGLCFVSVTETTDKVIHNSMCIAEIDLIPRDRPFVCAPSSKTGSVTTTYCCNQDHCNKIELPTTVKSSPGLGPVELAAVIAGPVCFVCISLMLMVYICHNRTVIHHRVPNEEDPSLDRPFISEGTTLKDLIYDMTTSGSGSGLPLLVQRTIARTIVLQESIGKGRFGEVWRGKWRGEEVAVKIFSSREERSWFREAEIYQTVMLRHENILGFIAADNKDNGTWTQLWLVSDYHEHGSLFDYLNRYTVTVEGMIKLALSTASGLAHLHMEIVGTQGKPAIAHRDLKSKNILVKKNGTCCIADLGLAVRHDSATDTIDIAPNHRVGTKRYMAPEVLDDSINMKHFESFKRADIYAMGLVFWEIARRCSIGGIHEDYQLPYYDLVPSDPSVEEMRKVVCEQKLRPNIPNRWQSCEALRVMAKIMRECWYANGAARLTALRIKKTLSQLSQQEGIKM

PDGFRβ = PDGFRβ (Homo sapiens, UniProt P09619)
KDR (VEGFR-2) = KDR (VEGFR-2) (Homo sapiens, UniProt P35968)
ALK-1 = ALK-1 (Homo sapiens, UniProt P37023); settings: in vitro kinase assays
[2] = test system: Wnt-mediated transcription; settings: read-out: IC50, inhibition of Wnt-mediated transcription

Chain of KDR (VEGFR-2) (P35968 20-1356, species assumed): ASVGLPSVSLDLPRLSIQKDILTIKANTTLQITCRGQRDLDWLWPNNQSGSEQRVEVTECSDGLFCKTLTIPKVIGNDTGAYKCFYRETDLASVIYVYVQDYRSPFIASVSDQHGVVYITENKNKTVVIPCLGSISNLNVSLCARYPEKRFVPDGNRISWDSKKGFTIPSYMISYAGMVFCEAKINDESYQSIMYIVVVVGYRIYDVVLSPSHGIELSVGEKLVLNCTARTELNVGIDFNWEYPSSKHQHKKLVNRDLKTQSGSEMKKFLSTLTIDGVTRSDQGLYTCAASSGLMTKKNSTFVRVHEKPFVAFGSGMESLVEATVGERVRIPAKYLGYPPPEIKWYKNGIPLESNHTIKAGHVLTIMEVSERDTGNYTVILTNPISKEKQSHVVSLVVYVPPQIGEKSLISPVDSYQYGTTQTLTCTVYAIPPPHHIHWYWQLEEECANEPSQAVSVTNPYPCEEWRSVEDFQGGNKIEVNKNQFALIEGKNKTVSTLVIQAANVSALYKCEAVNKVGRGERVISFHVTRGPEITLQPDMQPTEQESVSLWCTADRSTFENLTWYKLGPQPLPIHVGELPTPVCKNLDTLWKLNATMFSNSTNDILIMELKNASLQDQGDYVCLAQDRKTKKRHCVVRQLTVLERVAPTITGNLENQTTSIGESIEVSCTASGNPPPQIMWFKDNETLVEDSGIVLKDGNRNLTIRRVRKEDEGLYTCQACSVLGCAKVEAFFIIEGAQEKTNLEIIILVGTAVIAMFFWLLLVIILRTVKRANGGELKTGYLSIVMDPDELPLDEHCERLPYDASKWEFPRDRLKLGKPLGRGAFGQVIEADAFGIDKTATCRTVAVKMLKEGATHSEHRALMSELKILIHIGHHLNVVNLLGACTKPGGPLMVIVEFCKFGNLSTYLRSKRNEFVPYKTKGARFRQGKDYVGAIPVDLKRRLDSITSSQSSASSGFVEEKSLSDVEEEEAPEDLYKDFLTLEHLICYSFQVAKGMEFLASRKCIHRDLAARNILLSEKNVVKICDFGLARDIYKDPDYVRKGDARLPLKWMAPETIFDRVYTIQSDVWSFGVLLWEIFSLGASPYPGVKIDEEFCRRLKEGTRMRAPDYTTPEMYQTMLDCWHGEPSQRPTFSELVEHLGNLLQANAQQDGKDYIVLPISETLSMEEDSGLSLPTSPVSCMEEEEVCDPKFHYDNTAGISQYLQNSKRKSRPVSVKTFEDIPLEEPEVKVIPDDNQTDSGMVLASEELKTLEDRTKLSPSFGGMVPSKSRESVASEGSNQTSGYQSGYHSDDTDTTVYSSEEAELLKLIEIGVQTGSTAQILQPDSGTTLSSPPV
Chain of ALK-3 (P36894 24-532, species assumed): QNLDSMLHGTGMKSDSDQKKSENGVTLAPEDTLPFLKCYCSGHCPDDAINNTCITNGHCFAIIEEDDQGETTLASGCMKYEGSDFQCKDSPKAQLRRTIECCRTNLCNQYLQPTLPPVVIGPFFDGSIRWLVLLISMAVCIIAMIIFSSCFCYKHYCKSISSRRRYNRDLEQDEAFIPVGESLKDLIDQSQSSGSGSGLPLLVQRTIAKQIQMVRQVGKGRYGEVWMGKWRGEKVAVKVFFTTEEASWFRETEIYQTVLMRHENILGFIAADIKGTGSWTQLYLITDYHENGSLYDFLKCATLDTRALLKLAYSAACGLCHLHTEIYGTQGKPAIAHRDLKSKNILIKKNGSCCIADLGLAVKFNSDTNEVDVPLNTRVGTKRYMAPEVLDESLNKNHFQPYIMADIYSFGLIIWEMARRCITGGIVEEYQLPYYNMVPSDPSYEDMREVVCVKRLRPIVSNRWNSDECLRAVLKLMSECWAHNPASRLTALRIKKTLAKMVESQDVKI
Chain of PDGFRβ (P09619 33-1106, species assumed): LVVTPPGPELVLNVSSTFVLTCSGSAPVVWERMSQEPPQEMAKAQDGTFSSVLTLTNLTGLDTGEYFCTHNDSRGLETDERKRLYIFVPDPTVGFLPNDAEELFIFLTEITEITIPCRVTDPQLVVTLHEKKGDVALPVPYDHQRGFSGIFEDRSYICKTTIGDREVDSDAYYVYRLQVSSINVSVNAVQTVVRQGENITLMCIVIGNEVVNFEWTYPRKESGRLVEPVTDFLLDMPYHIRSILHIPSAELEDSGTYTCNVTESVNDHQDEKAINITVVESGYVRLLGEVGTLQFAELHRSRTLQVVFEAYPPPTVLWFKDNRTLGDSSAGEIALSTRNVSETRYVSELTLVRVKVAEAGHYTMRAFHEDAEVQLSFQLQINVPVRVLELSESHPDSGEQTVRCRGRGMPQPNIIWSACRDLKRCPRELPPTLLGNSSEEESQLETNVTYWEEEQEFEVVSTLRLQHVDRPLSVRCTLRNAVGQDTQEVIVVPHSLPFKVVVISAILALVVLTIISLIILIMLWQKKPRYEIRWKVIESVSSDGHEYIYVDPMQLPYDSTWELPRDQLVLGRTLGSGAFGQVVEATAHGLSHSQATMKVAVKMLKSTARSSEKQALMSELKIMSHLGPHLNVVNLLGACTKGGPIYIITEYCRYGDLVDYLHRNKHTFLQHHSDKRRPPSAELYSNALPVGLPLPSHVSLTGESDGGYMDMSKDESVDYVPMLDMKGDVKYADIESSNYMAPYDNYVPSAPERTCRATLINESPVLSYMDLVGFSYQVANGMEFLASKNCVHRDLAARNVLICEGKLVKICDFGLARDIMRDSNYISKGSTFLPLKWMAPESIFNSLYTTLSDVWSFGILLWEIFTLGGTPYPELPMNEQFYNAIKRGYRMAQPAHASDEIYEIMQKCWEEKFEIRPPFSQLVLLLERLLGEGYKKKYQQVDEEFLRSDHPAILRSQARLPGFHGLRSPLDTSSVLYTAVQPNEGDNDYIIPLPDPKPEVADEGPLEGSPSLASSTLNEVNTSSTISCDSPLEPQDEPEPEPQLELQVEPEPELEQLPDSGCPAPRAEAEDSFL
Chain of ALK-1 (P37023 22-503, species assumed): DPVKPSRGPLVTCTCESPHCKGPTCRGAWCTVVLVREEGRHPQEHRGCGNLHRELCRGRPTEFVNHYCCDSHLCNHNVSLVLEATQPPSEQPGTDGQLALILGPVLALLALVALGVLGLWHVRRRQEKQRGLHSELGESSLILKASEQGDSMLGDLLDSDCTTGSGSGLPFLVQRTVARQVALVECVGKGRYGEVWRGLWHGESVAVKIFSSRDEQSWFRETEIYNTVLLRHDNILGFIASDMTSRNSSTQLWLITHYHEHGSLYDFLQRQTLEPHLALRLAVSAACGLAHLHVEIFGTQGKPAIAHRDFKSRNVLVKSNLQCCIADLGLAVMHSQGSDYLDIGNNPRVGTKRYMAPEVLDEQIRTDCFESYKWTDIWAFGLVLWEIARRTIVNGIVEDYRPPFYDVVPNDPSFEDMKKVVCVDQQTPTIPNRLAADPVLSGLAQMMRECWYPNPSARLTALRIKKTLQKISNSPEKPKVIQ

- IC50 values against rodent GSK3-β homologs (rodent GSK3-β homologs): nanomolar
Structure (SMILES): Cc1c[nH]c(-c2cnc(NCCNc3ccc(C#N)cn3)nc2-c2ccc(Cl)cc2Cl)n1 [CHIR99021, 6-(2-(4-(2,4-dichlorophenyl)-5-(4-methyl-1H-imidazol-2-yl)pyrimidin-2-ylamino)ethylamino) nicotinonitrile]

- selectivity for ALK-2 over ALK-3 (ALK-3): 19 fold
- inhibition of ALK5 (ALK5): no significant inhibition
- inhibition of PDGFRβ (PDGFRβ): no significant inhibition
- inhibition of KDR (VEGFR-2) (KDR (VEGFR-2)): no significant inhibition
- selectivity for ALK-2 over ALK-1 (ALK-1): 6 fold
Structure (SMILES): CC(C)Oc1ccc(-c2cnc3c(-c4ccnc5ccccc45)cnn3c2)cc1 [DMH-1, 4-[6-[4-(1-Methylethoxy)phenyl]pyrazolo[1,5-a]pyrimidin-3-yl]-quinoline]
- inhibition of AMPK (AMPK): no significant inhibition
- BMP4-induced phosphorylation of Smads 1, 5 and 8 [1]: Blocks

- IC50 [2]: 0.074 nM
Structure (SMILES): Cc1cc(-c2ccc(CC(=O)Nc3ccc(-c4cccnc4)cc3)cc2)ccn1 [Wnt-059, 4-(2-Methyl-4-pyridinyl)-N-[4-(3-pyridinyl)phenyl]benzeneacetamide]
